In patent US9096882B2, “Method of selecting antioxidants for use in topically applied compositions” (MSD Consumer Care, Inc., priority 2008, dated 2015):

Tests used:
[1] = DPPH (α,α-diphenyl-β-picrylhydrazyl) free radical test; type: biochemical; conditions: 20 min, 30° C., absorbance 517 nm
Description: DPPH is a stable free radical that when dissolved in solution forms an intense purple color. […] The extent to which the color fades can be easily measured and used to rank the relative effectiveness of different materials purported to have antioxidant properties.
Measurements were recorded for antioxidant raw materials in simple methanol solutions. Samples were prepared by dissolving antioxidants at various concentrations in methanol. After sample preparation, 125 μl of the sample or pure methanol as a control were pipetted into sample test tubes followed by 2 ml of methanol and vortexed. Then 2 ml of DPPH stock solution (0.25 mM in methanol) was added to each tube (giving a total volume of 4.125 ml for each sample) and vortexed. Immediately after addition of DPPH, test tubes were covered and placed into a 30° C. water bath for 20 minutes. After the 20 minute incubation, the absorbance of each sample was recorded at 517 nm using a Perkin Elmer Lambda 40 spectrophotometer. All samples were prepared in triplicate and their mean absorbance values were used to express the efficacy of antioxidants at various concentrations in terms of antioxidant reducing units (ARU) by using the following equation: ARU=(Absorbance Methanol Control−Absorbance sample)×10 ARU values range in magnitude from 0 for “no” efficacy to about 15 for raw materials that have high antioxidant efficacy.

human skin lipids = assay: Ex vivo tape strip method: inhibition of UVR-induced lipid peroxidation (LOOH); type: biochemical; conditions: for % Inhibition of LOOH: tape strips irradiated 10 joules/cm^2 UVR, vs placebo lotion
Source text: To determine if antioxidants (Aox) maintain their effectiveness on skin in the presence of UVR, we devised a novel and more relevant model that utilizes human skin lipids as substrates for UVR-induced peroxidation. Lipids removed from skin on broad pieces of tape serve as the substrates for subsequent exposure to UVR. By applying a standard lotion with or without Aox to skin prior to tape-stripping, skin lipids can be collected on tape strips in the presence or absence of Aox that essentially maintains the same proximity that lipids and Aox had on skin. Following UVR exposure, the extent to which the presence of Aox protect lipids against peroxidation from ROS can be measured relative to lipids in the absence of antioxidants.
Human volunteers were recruited for the test and asked not to apply any products to their arms for at least two days before the test Prior to any product treatments, inner aspects of subjects' left and right forearms were wiped with a Kimwipe™ moistened with isopropanol to remove any residues that might be on the surface of the skin. Arms were wiped only once applying gentle pressure and then allowed to dry at least 10 minutes before proceeding. A template (90 mm×50 mm) was positioned on each inner forearm such that two areas could be clearly delineated. Using a superfine tip Sharpie™ pen, a mark was placed at each corner of the template to outline each application site, with two sites delineated per forearm. Using a fingercot, either placebo or antioxidant lotion was applied (100 mg) to a delineated site on a forearm. Care was taken to insure that products were applied evenly within the entire application area. After application, sites were allowed to air-dry for 30 minutes during which subjects were instructed not to allow any clothing to come into contact with test areas.
After lotions dried for 30 minutes, each site was tape-stripped using a 4.0 inch piece of Scotch® Brand No. 800 Prescription Label tape (1.5 inches wide). […] The piece of tape was positioned over a site and then using a finger the tape was gently pressed onto the skin to make good contact. […]
Each tape extract was assayed for total LOOH content using a Lipid Hydroperoxide Assay Kit (Kamiya Biomedical Company, Thousand Oaks, Calif.) following manufacturer's directions. Lipid hydroperoxides were then quantitated by measuring methylene blue formation at 675 nm using a spectrophotometer. Standard curves were prepared using cumene hydroperoxide and were linear over the range of LOOH detected in these experiments. […]
The extent to which antioxidant (Aox) or placebo lotions inhibited UVR-induced lipid hydroperoxide (LOOH) formation was calculated by inserting the values of LOOH determined from the four application sites on each volunteer into the following equation: […]

[2] = system: UV-induced ROS in EpiDerm™ Skin Model (human-derived epidermal keratinocytes); assay: Two photon fluorescence microscopy on EpiDerm Skin Model (UV-induced ROS down to the basal layer); type: cell-based; conditions: result in words (FIG. 4)
Description: Two photon fluorescence microscopy was then conducted on a formulation containing Vitamin E and Emblica to determine ability to inhibit formation of ROS. The methods used were similar to those as described above, using confocal microscopy to visualize cells at different depths within intact pieces of skin and then fluorescence to quantify the extent of ROS formation. In the present experiment, however, instead of using human breast skin, the skin used was the EpiDerm™ Skin Model (MatTek Corporation, Mass. USA), which consists of normal, human-derived epidermal keratinocytes which have been cultured to form a multilayered, highly differentiated model of the human epidermis. […]
Prior to UVR exposure, pieces of EpiDerm™ skin were treated with dihydrorhodamine, which partitions throughout the aqueous and lipid regions of the tissue. […] The fluorescence is subsequently detected and quantified to provide an indication of the level of UV-induced ROS formed in deeper layers of the skin. By applying antioxidants topically before irradiation ROS formation can be measured and compared to the ROS formed after a placebo lotion without antioxidants was applied to the skin. In this way, the efficacy of antioxidants to neutralize ROS within deeper layers of the skin can be measured and their relative efficiencies established. […]

CC(=O)N[C@@H](CS)C(=O)O [n-Acetyl cysteine]
ARU (antioxidant reducing units) ([1]; level 0.1% in methanol): 9.9 ARU

CC1(C)CC[C@]2(C(=O)O)CC[C@]3(C)C(=CC[C@@H]4[C@@]5(C)C[C@@H](O)[C@H](O)[C@@](C)(CO)[C@@H]5CC[C@]43C)[C@@H]2C1 [Arjunolic acid (1%), Arjunolic acid]
ARU (antioxidant reducing units) ([1]; level 1.0% in methanol): 0.4 ARU

Cc1c(C)c2c(c(C)c1O)CCC(C)(CCCC(C)CCCC(C)CCCC(C)C)O2 (stereo not drawn) [Vitamin E, dl alpha tocopherol]
ARU (antioxidant reducing units) ([1]; level 0.5% in methanol): 6.5 ARU | % Inhibition of LOOH (human skin lipids; 0.05% in lotion): −3.40% | % Inhibition of LOOH (human skin lipids; 0.10% in lotion): 28.4% | % Inhibition of LOOH (human skin lipids; 0.25% in lotion): 61.0% | protection of skin lipids against UVR-induced peroxidation (FIG. 1) (human skin lipids; result in words, FIG. 1): protects skin lipids in a dose dependant manner

CCCCC(CC)COC(=O)C(=Cc1cc(OC)c(O)c(OC)c1)C(=O)OCC(CC)CCCC (stereo not shown) [Diethylhexyl syringylidene malonate]
antioxidant or pro-oxidant behaviour within skin exposed to UVR [2]: maintains its antioxidant capability | ARU (antioxidant reducing units) ([1]; level 1.0% in methanol): 5.7 ARU

C[N+](C)(C)[C@@H](Cc1c[nH]c(=S)[nH]1)C(=O)[O-] [Ergothiotaine]
ARU (antioxidant reducing units) ([1]; level 0.1% in methanol): 0.0 ARU
